For one compound, fraction unbound, EC50 and MIC results are on record in article PMC5663395, “Chemical Validation of Methionyl-tRNA Synthetase as a Druggable Target in Leishmania donovani” (ACS Infectious Diseases, 2017).

Read-outs that look alike come from different tables or passages of the source.

Data set [1] can be described thus: Plasma protein binding, equilibrium dialysis, mouse plasma. The data set is classed as in vitro ADME. The following applies: female, CD1, read-out: fu (unbound fraction). As to the method:
which gave the best fit to the data was then recorded as the logP. Using the logP and an experimentally determined pKa (see above), the software generated a lipophilicity plot showing changes in the logD with increasing pH and from this plot a logD7.3 and logD5.6 values were recorded.
Plasma Protein Binding Determination
A 96-well equilibrium dialysis apparatus was used to determine the free fraction in plasma for DDD806905 (HT Dialysis LLC, Gales Ferry, CT). Membranes (12-14 kDA cut-off) were conditioned in deionised water for 60 minutes, followed by conditioning in 80:20 deionised water:ethanol for 20 minutes, and then rinsed in isotonic buffer before use. Female CD1 mouse plasma or human plasma was removed from the freezer and allowed to thaw on the day of experiment. Thawed plasma was then centrifuged (Allegra X12-R, Beckman Coulter, USA), spiked with test compound (final concentration 10 μg/ml), and 150 μL aliquots (n=6 replicate determinations) loaded into the 96-well equilibrium dialysis plate. […] All samples were analysed by UPLC-MS/MS on a Quattro Premier XE Mass Spectrometer (Waters Corporation, USA).
The unbound fraction (fu) was determined as the ratio of the peak area in buffer to that in plasma. […]
(In general: In equilibrium dialysis only unbound substance equilibrates across the membrane.)

The subject of data set [2] is L. donovani intracellular amastigote. The data set is described as follows: Leishmania intracellular amastigote assay. The data set is classed as cell-based. As to the method:
(§1) carried out as described above using 5%, 10% and 20% FBS in the media. To examine the effect of the methionine concentration on the potency of DDD806905 parasites were grown in the presence of drug and in the presence (or absence) of 20-fold excess methionine (0.3 g/l). IC50 curve fitting was undertaken in GraFit version 6.0 (Erithacus Software) using a four-parameter logistic dose-response curve (equation 6), with s the slope.
(§2) Leishmania Axenic Amastigote Assay
(§3) The Leishmania axenic amastigote assay was performed using the method published in Nühs et al 15.
(§4) Leishmania Intracellular Amastigote Assay
(§5) The intramacrophage Leishmania assay was performed using a modified version of the method described in De Rycker et al 16. […]
(§6) amphotericin B was included. Controls were as follows: columns 11 and 12: DMSO, columns 23 and 24: amphotericin B (final concentration 2 µM). 350 nl of compound was pre-dispensed into 384-well sterile intermediary plates. To the intermediary plates, 35 µl of THP-1 media was added and plates were shaken for >5 min to ensure complete mixing. THP-1 cells (8,000 per well, 50 µl) were plated into black clear-bottom 384-well plates (Corning) in presence of 20 nM phorbol 12-myristate 13- […]
(§7) in a humidified incubator for 75 h. The cells were then washed with 450 µl sterile phosphate buffered saline (PBS) supplemented with 1 mM CaCl2, 0.5 mM MgCl2, 0.1% (w/v) bovine serum albumin (PBS-A) and amastigotes were added to all wells at a multiplicity of infection of 5 (40,000 amastigotes per well). After 40 min at room temperature, plates were returned to the incubator.
Amastigotes were incubated in the presence of THP-1 macrophages for 16 h. Any remaining extracellular amastigotes were subsequently removed by washing with PBS-A followed by addition of 25 µl of the compound pre-dilutions using an Ipette-pro pipetting station (FluidX). The final dilution of each compound was 200-fold. […] For each well, i) THP-1 cell count (cytotoxicity readout) and ii) average number of amastigotes per cell (potency readout) were […]
calculated, both in terms of pEC50 values. […]

The test system of data set [3] is L. donovani axenic amastigotes. The data set is described as follows: Leishmania axenic amastigote viability assay. The data set is classed as cell-based, Leishmania donovani. The note with it: Leishmania donovani. The procedure: as §1, §2, §3, §4, §5, §6, §7
Amastigotes were incubated in the presence of THP-1 macrophages for 16 h. Any remaining extracellular amastigotes were subsequently removed by washing with PBS-A followed by addition of 25 µl of the compound pre-dilutions using an Ipette-pro pipetting station (FluidX). The final dilution of each compound was 200-fold. Plates were incubated for 96 h and then washed (250 µl PBS-A) and fixed (4 % (v/v) formaldehyde-PBS, 30 min, room temperature). After fixation, the wells were washed with 250 µl PBS, stained (10 µg/ml DAPI, 0.4 µg/mL HCS Cellmask Deep Red in PBS + 0.1% (v/v) Triton X-100, 30 min, room temperature) and washed with 250 µl PBS. Finally, PBS + 0.05% (v/v) thimerosal was added to the wells, the plates were sealed and imaged on a high-content microscope (GE IN Cell 2000) using a 10x objective. Image analysis was carried out with GE IN Cell Analyzer 1000 Workstation using the “Multi Target Analysis” module. For each well, i) THP-1 cell count (cytotoxicity readout) and ii) average number of amastigotes per cell (potency readout) were […]

On to `Cl.Cl.O=c1nc(NCCCNCc2cc3c(Cl)cc(Cl)cc3[nH]2)[nH]c2ccccc12` [DDD806905, 2-((3-(((4,6-dichloro-1H-indol-2-yl)methyl)amino)propyl)amino)quinazolin-4(1H)-one dihydrochloride], for which the fraction unbound at 5 h, 10 μg/ml in data set [1] amounted to 0.006. The EC50 in data set [2] (in THP-1 macrophages, read-out: intracellular amastigote EC50) came out at 2900 nM; in data set [2] (representative curve, n=8 technical replicates, read-out: intracellular amastigote EC50, representative potency determination), 2800 nM; in data set [3] (Table 1, read-out: Leishmania Axenic Amastigote EC50) it was 14 µM; in data set [3] (media pH 5.6, read-out: axenic amastigote EC50), 13.7 µM. In addition, the MIC in data set [2] (intracellular assay, lowest concentration with maximal inhibition, read-out: MIC (minimum inhibitory concentration)) turned out to be 4.3 µM.

In general, fraction unbound refers to free concentration divided by total concentration. By EC50 is commonly meant the concentration needed to bring the measured effect to its halfway point.
